One assay concerns the target T1, 5HT3 ion channels (Homo sapiens, UniProt P46098).
T1 sequence (P46098 24-478): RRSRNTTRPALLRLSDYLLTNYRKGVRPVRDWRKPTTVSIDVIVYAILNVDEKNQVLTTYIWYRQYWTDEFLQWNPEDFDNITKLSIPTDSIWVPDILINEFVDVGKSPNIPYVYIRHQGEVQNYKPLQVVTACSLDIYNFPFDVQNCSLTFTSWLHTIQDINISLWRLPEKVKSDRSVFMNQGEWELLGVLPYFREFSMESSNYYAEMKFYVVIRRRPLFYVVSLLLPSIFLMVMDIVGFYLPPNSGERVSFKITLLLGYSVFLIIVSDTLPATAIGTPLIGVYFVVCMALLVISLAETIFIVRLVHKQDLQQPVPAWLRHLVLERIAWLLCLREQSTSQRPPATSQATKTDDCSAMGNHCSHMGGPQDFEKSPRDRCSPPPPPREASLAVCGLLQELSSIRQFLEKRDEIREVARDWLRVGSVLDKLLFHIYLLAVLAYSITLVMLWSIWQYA
The assay is described as follows: PDSP radioligand binding, 5HT3 ion channel. Particulars: read-out: % inhibition at 10 µM; single concentration 10 µM.

For a further assay, the target named is β3 adrenergic receptor (Homo sapiens, UniProt P13945). The experiment in a line: PDSP radioligand binding, β3. Particulars: for inhibition at 10 µM: read-out: % inhibition at 10 µM, single concentration 10 µM.
Assay [1] concerns the target 5HT5A serotonergic receptor (Homo sapiens, UniProt P47898). The experiment in a line: PDSP radioligand binding, 5HT5A. As to conditions: read-out: % inhibition at 10 µM; single concentration 10 µM.
The target in another assay is D5 dopaminergic receptor (Homo sapiens, UniProt P21918). The experiment in a line: PDSP radioligand binding, D5. Particulars: read-out: % inhibition at 10 µM; single concentration 10 µM.
Assay [2] concerns the target 5HT1E serotonergic receptor (Homo sapiens, UniProt P28566). The experiment in a line: PDSP radioligand binding, 5HT1E. As to conditions: read-out: % inhibition at 10 µM; single concentration 10 µM.
The target of assay [3] is 5HT7 serotonergic receptor (Homo sapiens, UniProt P34969). The experiment in a line: PDSP radioligand binding, 5HT7. Particulars: read-out: % inhibition at 10 µM; single concentration 10 µM.
The next assay addresses T2, α1B adrenergic receptor (Homo sapiens, UniProt P35368).
T2 sequence (P35368 1-520): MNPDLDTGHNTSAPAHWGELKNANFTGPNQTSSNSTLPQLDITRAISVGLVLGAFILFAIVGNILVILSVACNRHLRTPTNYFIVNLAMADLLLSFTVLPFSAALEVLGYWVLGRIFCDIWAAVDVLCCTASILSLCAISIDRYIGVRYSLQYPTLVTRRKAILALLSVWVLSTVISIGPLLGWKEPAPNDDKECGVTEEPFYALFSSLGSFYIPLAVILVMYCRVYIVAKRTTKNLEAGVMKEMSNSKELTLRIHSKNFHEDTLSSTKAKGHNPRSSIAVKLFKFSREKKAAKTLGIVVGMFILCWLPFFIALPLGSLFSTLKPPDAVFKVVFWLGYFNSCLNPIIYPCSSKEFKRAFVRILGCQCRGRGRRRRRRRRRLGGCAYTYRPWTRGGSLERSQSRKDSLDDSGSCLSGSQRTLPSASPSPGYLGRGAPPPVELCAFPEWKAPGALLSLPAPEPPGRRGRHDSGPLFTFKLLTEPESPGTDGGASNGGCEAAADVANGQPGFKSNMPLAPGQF
The assay is described as follows: PDSP radioligand binding, α1B. As to conditions: read-out: % inhibition at 10 µM; single concentration 10 µM.

A further assay concerns the target D2 dopaminergic receptor (Homo sapiens, UniProt P14416). The assay is described as follows: PDSP radioligand binding, D2. As to conditions: read-out: % inhibition at 10 µM; single concentration 10 µM.
Assay [4] addresses 5HT2B serotonergic receptor (Homo sapiens, UniProt P41595). The experiment in a line: PDSP radioligand binding, 5HT2B. As to conditions: for Ki: full concentration-response curves, n = 3-6 unless noted; for inhibition at 10 µM: read-out: % inhibition at 10 µM, single concentration 10 µM.
Assay [5] has as its target T3, 5HT1A serotonergic receptor (Homo sapiens, UniProt P08908).
T3 sequence (P08908 1-422): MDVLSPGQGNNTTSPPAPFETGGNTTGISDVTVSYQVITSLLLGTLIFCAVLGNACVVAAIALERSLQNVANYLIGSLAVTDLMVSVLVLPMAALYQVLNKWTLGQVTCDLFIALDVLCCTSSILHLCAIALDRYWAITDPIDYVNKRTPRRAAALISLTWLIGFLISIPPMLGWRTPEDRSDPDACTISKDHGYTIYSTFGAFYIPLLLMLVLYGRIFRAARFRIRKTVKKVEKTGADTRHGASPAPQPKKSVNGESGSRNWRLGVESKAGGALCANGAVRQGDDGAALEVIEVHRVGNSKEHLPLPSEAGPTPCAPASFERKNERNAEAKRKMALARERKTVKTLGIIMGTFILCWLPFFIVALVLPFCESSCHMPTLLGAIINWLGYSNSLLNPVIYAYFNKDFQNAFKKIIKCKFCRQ
The assay is described as follows: PDSP radioligand binding, 5HT1A. Particulars: read-out: % inhibition at 10 µM; single concentration 10 µM.

A further assay concerns the target T4, α2C adrenergic receptor (Homo sapiens, UniProt P18825).
T4 sequence (P18825 1-462): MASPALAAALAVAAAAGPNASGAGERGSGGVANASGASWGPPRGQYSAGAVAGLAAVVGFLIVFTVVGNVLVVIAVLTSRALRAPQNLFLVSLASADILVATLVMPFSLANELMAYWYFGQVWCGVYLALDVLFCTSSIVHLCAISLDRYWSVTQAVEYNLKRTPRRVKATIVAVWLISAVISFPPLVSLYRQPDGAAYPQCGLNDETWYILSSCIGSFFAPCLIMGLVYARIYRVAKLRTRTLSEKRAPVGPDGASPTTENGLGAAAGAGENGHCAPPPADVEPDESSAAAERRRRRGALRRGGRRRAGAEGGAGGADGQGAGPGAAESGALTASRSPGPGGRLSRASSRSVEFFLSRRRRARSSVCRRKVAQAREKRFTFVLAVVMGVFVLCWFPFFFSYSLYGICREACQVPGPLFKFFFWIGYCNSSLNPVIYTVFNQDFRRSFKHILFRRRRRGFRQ
The assay is described as follows: PDSP radioligand binding, α2C. Particulars: for Ki: full concentration-response curves, n = 3-6 unless noted; for inhibition at 10 µM: read-out: % inhibition at 10 µM, single concentration 10 µM.

In assay [6] the target is peripheral benzodiazepine receptor (PBR) (Rattus norvegicus, UniProt P16257). The assay is described as follows: PDSP radioligand binding, PBR. As to conditions: for inhibition at 10 µM: read-out: % inhibition at 10 µM, single concentration 10 µM.

The record followed here is PMC4032265 (PLoS ONE, 2014).

Structures are written as SMILES.

Sequence of β3 adrenergic receptor (P13945 whole entry): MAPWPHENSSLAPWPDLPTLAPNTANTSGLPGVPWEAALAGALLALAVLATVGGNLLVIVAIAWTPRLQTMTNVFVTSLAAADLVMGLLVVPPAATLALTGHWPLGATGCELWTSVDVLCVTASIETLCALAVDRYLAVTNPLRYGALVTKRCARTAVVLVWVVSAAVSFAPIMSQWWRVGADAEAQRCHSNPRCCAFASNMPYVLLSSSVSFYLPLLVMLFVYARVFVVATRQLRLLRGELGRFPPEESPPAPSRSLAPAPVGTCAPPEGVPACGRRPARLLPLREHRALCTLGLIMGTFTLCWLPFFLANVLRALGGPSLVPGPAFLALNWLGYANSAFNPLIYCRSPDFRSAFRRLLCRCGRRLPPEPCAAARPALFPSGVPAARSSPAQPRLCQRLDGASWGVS
Sequence of 5HT2B serotonergic receptor (P41595 whole entry): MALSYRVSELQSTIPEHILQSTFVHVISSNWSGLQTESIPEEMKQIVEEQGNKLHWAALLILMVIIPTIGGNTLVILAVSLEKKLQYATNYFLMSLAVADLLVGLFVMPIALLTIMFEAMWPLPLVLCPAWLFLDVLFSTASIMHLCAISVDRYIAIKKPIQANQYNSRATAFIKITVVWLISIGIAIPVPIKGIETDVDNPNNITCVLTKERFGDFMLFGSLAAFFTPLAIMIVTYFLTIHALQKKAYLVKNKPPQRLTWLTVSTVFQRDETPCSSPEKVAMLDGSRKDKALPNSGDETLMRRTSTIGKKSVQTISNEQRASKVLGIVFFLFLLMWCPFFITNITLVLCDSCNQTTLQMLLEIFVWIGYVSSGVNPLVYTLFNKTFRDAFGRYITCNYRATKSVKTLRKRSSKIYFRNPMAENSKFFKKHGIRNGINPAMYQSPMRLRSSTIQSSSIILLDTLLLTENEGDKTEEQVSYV
Sequence of D5 dopaminergic receptor (P21918 whole entry): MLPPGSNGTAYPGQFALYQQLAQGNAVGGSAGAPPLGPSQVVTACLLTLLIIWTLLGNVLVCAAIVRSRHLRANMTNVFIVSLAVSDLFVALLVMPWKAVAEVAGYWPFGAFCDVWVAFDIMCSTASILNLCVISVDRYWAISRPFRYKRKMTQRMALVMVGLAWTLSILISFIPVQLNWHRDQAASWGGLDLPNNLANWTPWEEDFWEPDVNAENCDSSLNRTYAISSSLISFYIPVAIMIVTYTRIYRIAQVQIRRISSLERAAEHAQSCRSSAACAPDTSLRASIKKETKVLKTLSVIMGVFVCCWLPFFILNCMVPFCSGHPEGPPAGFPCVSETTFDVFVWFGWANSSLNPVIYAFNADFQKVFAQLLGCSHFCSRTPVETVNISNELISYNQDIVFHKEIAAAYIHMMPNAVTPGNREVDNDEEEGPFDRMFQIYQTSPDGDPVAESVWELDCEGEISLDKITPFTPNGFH
Sequence of 5HT5A serotonergic receptor (P47898 whole entry): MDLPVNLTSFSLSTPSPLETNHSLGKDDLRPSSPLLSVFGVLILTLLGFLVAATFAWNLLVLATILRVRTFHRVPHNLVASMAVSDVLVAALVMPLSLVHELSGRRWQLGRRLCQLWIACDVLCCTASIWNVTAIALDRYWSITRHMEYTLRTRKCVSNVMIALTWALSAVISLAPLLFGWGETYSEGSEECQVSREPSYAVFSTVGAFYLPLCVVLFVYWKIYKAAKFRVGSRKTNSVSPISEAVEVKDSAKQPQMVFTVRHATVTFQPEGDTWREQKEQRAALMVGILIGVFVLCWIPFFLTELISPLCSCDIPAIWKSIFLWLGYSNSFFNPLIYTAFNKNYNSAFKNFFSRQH
Sequence of 5HT1E serotonergic receptor (P28566 whole entry): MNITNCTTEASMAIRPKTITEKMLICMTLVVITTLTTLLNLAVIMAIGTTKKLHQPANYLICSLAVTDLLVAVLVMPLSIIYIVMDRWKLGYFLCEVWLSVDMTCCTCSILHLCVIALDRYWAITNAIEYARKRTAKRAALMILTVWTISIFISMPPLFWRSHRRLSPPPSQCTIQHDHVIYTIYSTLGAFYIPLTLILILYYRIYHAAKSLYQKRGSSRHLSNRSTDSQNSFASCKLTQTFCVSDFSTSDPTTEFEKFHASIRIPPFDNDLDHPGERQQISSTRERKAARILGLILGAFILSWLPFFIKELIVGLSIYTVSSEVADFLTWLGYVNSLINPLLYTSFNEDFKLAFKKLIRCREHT
Sequence of 5HT7 serotonergic receptor (P34969 whole entry): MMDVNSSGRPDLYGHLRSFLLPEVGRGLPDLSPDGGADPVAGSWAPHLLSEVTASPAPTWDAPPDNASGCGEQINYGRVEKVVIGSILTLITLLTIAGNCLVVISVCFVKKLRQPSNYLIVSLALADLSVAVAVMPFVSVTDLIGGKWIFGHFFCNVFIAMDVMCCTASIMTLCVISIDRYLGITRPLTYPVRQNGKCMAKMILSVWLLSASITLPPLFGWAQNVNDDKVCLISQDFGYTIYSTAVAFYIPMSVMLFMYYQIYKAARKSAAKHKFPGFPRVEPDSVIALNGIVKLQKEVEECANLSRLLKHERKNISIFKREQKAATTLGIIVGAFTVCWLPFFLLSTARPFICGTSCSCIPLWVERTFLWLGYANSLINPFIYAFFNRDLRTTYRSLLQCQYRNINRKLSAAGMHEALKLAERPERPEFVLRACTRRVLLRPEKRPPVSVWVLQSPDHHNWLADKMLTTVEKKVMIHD
Sequence of D2 dopaminergic receptor (P14416 whole entry): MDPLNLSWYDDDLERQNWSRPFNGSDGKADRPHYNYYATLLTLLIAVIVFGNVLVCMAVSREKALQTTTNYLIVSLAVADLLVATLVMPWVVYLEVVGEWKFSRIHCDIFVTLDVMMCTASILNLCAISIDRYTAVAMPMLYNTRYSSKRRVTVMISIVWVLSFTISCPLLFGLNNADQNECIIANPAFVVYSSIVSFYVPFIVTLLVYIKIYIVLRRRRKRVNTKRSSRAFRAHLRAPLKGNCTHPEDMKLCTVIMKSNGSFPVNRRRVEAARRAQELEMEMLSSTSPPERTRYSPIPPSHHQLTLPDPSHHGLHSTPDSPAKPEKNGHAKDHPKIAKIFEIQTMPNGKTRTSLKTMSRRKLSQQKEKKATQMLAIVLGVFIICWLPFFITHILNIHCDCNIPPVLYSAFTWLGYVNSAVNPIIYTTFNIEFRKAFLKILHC

A word on the inhibition: it is the drop in the measured response relative to a control, in per cent. As usually defined, the Ki is the dissociation constant of the complex between target and ligand, obtained from inhibition or displacement. High values mean a looser hold on the target, low ones a stronger hold on the target. For the compound `CNC(=O)[C@@]12C[C@@H]1[C@@H](n1cnc3c(NCc4cccc(Cl)c4)nc(C#Cc4ccc(F)cc4)nc31)[C@H](O)[C@@H]2O` [Compound 2], the inhibition at 10 µM turned out to be 26% at 5HT3 ion channels; 67% at β3 adrenergic receptor; 25% in assay [1]; 19% on D5 dopaminergic receptor; 0% in assay [2]; 6% in [3]. Moreover, the inhibition at 10 µM at α1B adrenergic receptor was 1%; at D2 dopaminergic receptor it was 0%; in assay [4], 56%; in assay [5] it was 5%; on α2C adrenergic receptor, 48%; in assay [6] it was 92%. Also, the inhibition constant (Ki) at β3 adrenergic receptor (full concentration-response curves, n = 3-6 unless noted) was determined as 1560 ± 560 nM; in assay [4], 2.13 ± 0.27 µM; at α2C adrenergic receptor, 3640 ± 1370 nM; in assay [6] (full curves, n = 2) it was 253 ± 57 nM.
For the compound `Fc1ccc(C#Cc2nc(NCc3cccc(Cl)c3)c3nc[nH]c3n2)cc1F` [Compound 8], the inhibition at 10 µM was determined as 0% on 5HT3 ion channels; 5% on β3 adrenergic receptor; 11% in [1]; 9% on D5 dopaminergic receptor; 0% in assay [2]; 0% in assay [3]. Besides, the inhibition at 10 µM turned out to be 30% on α1B adrenergic receptor; 0% at D2 dopaminergic receptor; 39% in [4]; 11% in assay [5]; 83% on α2C adrenergic receptor; 13% in [6]. The Ki in assay [4] was found to be 4 ± 1.92 µM; on α2C adrenergic receptor, 1020 ± 690 nM.
